Measured values published in patent EP4707393A1, “DOUBLE-STRANDED SIRNA, CONJUGATE THEREOF AND USE THEREOF” (CMS Research & Development Pte. Ltd., priority 2023, dated 2024).

Columns and labels:
[1] = test system: human LPA gene (Genbank number: NM_005577.4); assay: Inhibitory activity against LPA mRNA, psiCHECK-2 dual-luciferase reporter vector in Huh7 cells; format: cell-based; conditions: Huh7 cells transfected with LPA_psiCHECK-2 plasmid, RNAiMAX transfection
Summary of the method: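 Huh7 cells transfected with psiCHECK-2 carrying human LPA, then treated next day with compounds (3 concentrations) delivered by RNAiMAX. Dual-Glo readout of firefly and Renilla luciferase per well. Percent inhibition calculated from the reporter ratio relative to the RNAiMAX control.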

[2] = test system: LPA mRNA; assay: In vivo efficacy in LPA-HDI mouse model (liver LPA mRNA); design: species or system BALB/c mouse; conditions: 3 mg/kg single subcutaneous injection, Day 14, relative to PBS blank group, 4 mice per group
Procedure: The knockdown effect of the test double-stranded siRNA conjugate on the target gene LPA upon entry into the mouse is evaluated by rapid high-pressure injection of the physiological saline containing recombinant plasmid pcDNA-LPA carrying the target gene via the tail vein.
pcDNA-LPA plasmid, BALB/c mouse, PBS (phosphate buffer), and conjugates of the present invention.
Six-week-old female BALB/c mice were ordered and acclimated/quarantined for three days upon arrival in the animal room.
On Day 0, the mice were randomly grouped based on body weight data. After grouping, all mice were given a single administration via subcutaneous injection, with a dose volume of 10 mL/kg. Mice in Group 1 received PBS; mice in the other groups received the conjugates (dissolved in PBS).
On Day 13 post-administration, all mice were injected with normal saline containing the pcDNA-LPA plasmid via the tail vein within 5 seconds. The injection volume (mL) = mouse body weight (g) × 8%. The amount of plasmid injected per mouse was 10 µg.
On Day 14 post-administration, all groups of mice were euthanized by CO2 inhalation, and 2 liver samples were collected from each mouse. Liver samples were treated overnight with RNAlater at 4 °C, then RNAlater was removed, and stored at -80 °C for detection of LPA gene expression levels.

[3] = test system: hPBMCs; assay: Immunogenicity test in hPBMCs (IL-6 and TNF-α ELISA of supernatant); format: cell-based, human; conditions: donor 1 hPBMCs, 18-20 h
Procedure: 1 Experimental material • 1.1 Double-stranded siRNA conjugates • 1.2 hPBMCs, purchased from Shanghai Sailybio Medical Co., LTD. • 1.3 Main reagents: Penicillin-Streptomycin (Cat. No.: 15140122), RNase-free water (Cat. No.: AM9938), IL-6 ELISA kit (Cat. No.: 555220), TNF-α ELISA kit (Cat. No.: 555212), LPS (Cat. No.: L2630), etc. 2 Experimental method • 2.1 Compound Preparation: Compounds were prepared as stock solutions with enzyme-free water. Compound weight = powder weight * purity. The concentration of prepared solutions was 900 µg/mL, followed by three-fold serial dilution with enzyme-free water. Each concentration was diluted 10-fold with 1640 medium, resulting in a final enzyme-free water content of 5.0%. • 2.2 Experimental procedure: • 2.2.1 PBMC cells were resuscitated one day in advance and incubated overnight in 1640 complete medium. • 2.2.2 On the day of the experiment, PBMC cells were centrifuged at 300 × g for 8 minutes, and the cell density was adjusted to 1.6 × 10^6 mL with 1640 complete medium. The cells were then added to a 96-well plate, 125 µL per well, and incubated in a 37 °C, 5% CO2 incubator for 15 minutes. • 2.2.3 The diluted test compounds were added to the 96-well plate according to the plate map, all in duplicate, 125 µL for each well; the positive control group and the blank group were added with an equal volume of 1640 complete culture medium containing the same amount of enzyme-free water. • 2.2.4 After gently shaking, the well plates were incubated in an incubator at 37 °C for 18-20 h. The supernatant was collected by centrifugation, and secretions of TNF-α and IL-6 were detected by ELISA. • 2.2.5 Data were analyzed using GraphPad Prism 8 software. 3 Experimental results Table 10. IL-6 and TNF-α levels in the cell supernatant of donor 1 hPBMCs treated with different doses of test compounds

| Substance | EC50 [1] [nM] | % Downregulation of LPA mRNA [2] [%] | IL-6 ([3]; 5 µg/mL) [pg/mL] | TNF alpha ([3]; 5 µg/mL) [pg/mL] | IL-6 ([3]; 15 µg/mL) [pg/mL] | TNF alpha ([3]; 15 µg/mL) [pg/mL] | IL-6 ([3]; 45 µg/mL) [pg/mL] | TNF alpha ([3]; 45 µg/mL) [pg/mL] |
| --- | --- | --- | --- | --- | --- | --- | --- | --- |
| Z27: siRNA conjugate: sense SEQ ID NO:43, ligand D18 at 3' end of sense strand, antisense SEQ ID NO:66 (sense CAGCCCCTTATTGTTANACGA; antisense TCTCGTATNACAATAAGGGGCTG; ligand D18 at sense 3' end; listed as RNA; modified_base 1: mod_base = OTHER; note = 2'-O-methylcytidine; modified_base 2: mod_base = OTHER; note = 2'-O-methyladenosine; modified_base 3: mod_base = OTHER; note = 2'-O-methylguanosine; modified_base 4..7: mod_base = OTHER; note = 2'-O-me; note = 2'-O-methyluridine; modified_base 4: mod_base = OTHER; note = 2'-fluorocytidine; modified_base 5: mod_base = OTHER; note = 2'-O-methylg) | 0.96 | 92.2 |  |  |  |  |  |  |
| Z32: siRNA conjugate: sense SEQ ID NO:47, ligand D18 at 3' end of sense strand, antisense SEQ ID NO:71 (sense GCCCCTTATTGTTANACGA; antisense TCGTATNACAATAAGGGGCTGT; ligand D18 at sense 3' end; listed as RNA; modified_base 1: mod_base = OTHER; note = 2'-O-methylguanosine; modified_base 2: mod_base = OTHER; note = 2'-O-methylcytidine; modified_base 3..5: mod_base = OTHER; modified_base 6: mod_base = OTHER; note = 2'-O-met; note = E-type vinylphosphonate-modified 2'-O-methyluridine; note = 2'-fluorocytidine; modified_base 3: mod_base = OTHER; modified_base 4: mo) | 0.21 | 86.4 |  |  |  |  |  |  |
| Z33: siRNA conjugate: sense SEQ ID NO:47, ligand D18 at 3' end of sense strand, antisense SEQ ID NO:72 (sense GCCCCTTATTGTTANACGA; antisense TCGTATNACAATAAGGGGCTGT; ligand D18 at sense 3' end; listed as RNA; modified_base 1: mod_base = OTHER; note = 2'-O-methylguanosine; modified_base 2: mod_base = OTHER; note = 2'-O-methylcytidine; modified_base 3..5: mod_base = OTHER; modified_base 6: mod_base = OTHER; note = 2'-O-met; note = E-type vinylphosphonate-modified 2'-O-methyluridine; note = 2'-fluorocytidine; modified_base 3: mod_base = OTHER; modified_base 4: mo) |  | 79.2 |  |  |  |  |  |  |
| Z34: siRNA conjugate: sense SEQ ID NO:48, ligand D18 at 3' end of sense strand, antisense SEQ ID NO:73 (sense CAGCCCCTTATTGTTANACGA; antisense TCGTATNACAATAAGGGGCNGTT; ligand D18 at sense 3' end; listed as RNA; modified_base 1: mod_base = OTHER; note = 2'-O-methylcytidine; modified_base 2: mod_base = OTHER; note = 2'-O-methyladenosine; modified_base 3: mod_base = OTHER; note = 2'-O-methylguanosine; modified_base 4..6: mod_base = OTHER; note = 2'-O-me; note = E-type vinylphosphonate-modified 2'-O-methyluridine; note = 2'-fluorocytidine; modified_base 4: mo) | 3.05 | 78.1 |  |  |  |  |  |  |
| Z35: siRNA conjugate: sense SEQ ID NO:49, ligand D18 at 3' end of sense strand, antisense SEQ ID NO:74 (sense CAGCCCCTTATTGTTATACGA; antisense TCGTATNACAATAAGGGGCNGTT; ligand D18 at sense 3' end; listed as RNA; modified_base 1: mod_base = OTHER; note = 2'-O-methylcytidine; modified_base 2: mod_base = OTHER; note = 2'-O-methyladenosine; modified_base 3: mod_base = OTHER; note = 2'-O-methylguanosine; modified_base 4..7: mod_base = OTHER; note = 2'-O-me; note = E-type vinylphosphonate-modified 2'-O-methyluridine; note = 2'-deoxycytidine; modified_base 4: mod) | 0.14 | 92.3 |  |  |  |  |  |  |
| Z40: siRNA conjugate: sense SEQ ID NO:52, ligand D01 at 3' end of sense strand, antisense SEQ ID NO:78 (sense CCTGCCAAGCTTGGTCNTCTA; antisense TCTAGATGNCCAAGCTTGGCNGG; ligand D01 at sense 3' end; listed as RNA; modified_base 1..2: mod_base = OTHER; note = 2'-O-methylcytidine; modified_base 3: mod_base = OTHER; note = 2'-O-methyluridine; modified_base 4: mod_base = OTHER; note = 2'-O-methylguanosine; modified_base 5..6: mod_base = OTHER; note = 2'-O-m; modified_base 1: mod_base = OTHER; note = 2'-fluoroadenosine; modified_base 5: mod_base = OTHER; note = 2'-O-methyl) | 0.07 | 59.0 | 1333.8 | 35.9 | 1266.6 | 32.3 | 1343.4 | 32.7 |
| Z41: siRNA conjugate: sense SEQ ID NO:49, ligand D01 at 3' end of sense strand, antisense SEQ ID NO:79 (sense CAGCCCCTTATTGTTATACGA; antisense NCGTATNACAATAAGGGGCNGTT; ligand D01 at sense 3' end; listed as RNA; modified_base 1: mod_base = OTHER; note = 2'-O-methylcytidine; modified_base 2: mod_base = OTHER; note = 2'-O-methyladenosine; modified_base 3: mod_base = OTHER; note = 2'-O-methylguanosine; modified_base 4..7: mod_base = OTHER; note = 2'-O-me; note = n is B29; note = 2'-deoxycytidine; modified_base 4: mod_base = OTHER; note = 2'-O-methyluridine; m) | 0.09 |  | 1362.7 | 37.3 | 2424.8 | 94.0 | 1537.6 | 44.7 |
